# From patent US8778973B2, “Alkene oxindole derivatives” (Hoffmann-La Roche Inc., priority 2009, dated 2014)
# Tested on: Recombinant human AMPK proteins (α1β1γ1, α2β1γ1, α1(1-335), α1(1-394) or α2(1-394))
# Assay: Scintillation Proximity Assay (SPA) of AMPK activation
# Format: biochemical
# Settings: activator concentration for 50% of maximal enzyme activity; 50 nM recombinant AMPK, 2 μM ATP, 30° C., 2 hr
# Description: Recombinant human AMPK α1β1γ1, α2β1γ1 or AMPK α subunit truncations α1(1-335), α1(1-394) and α2(1-394) were constructed, expressed and purified as described previously (Pang, T., Zhang, Z. S., Gu, M., Qiu, B. Y., Yu, L. F., Cao, P. R., Shao, W., Su, M. B., Li, J. Y., Nan, F. J., and Li, J. (2008)). Rat liver AMPK heterotrimer enzyme was obtained from Upstate (Billerica, Mass., U.S.A.).
# Scintillation Proximity Assay
# Before the Scintillation Proximity Assay (SPA) assay, 200 nM recombinant AMPK proteins (α1β1γ1, α2β1γ1, α1(1-335), α1(1-394) or α2(1-394)) were fully phosphorylated as described previously (Pang et al., 2008). SPA reactions were performed in 96-well plates at a final volume of 501 containing 20 mM Tris-HCl pH 7.5, 5 mM MgCl2, 1 mM DTT, 2 μM biotin-SAMS, 2 μM ATP, 0.2 μCi/well [γ-^33P]ATP, and various amount of activator. Reactions were initiated by the addition of 50 nM recombinant AMPK proteins to the reaction solutions and incubated at 30° C. for 2 hr. After that, reactions were terminated by the addition of 401 stop solution containing 80 μg streptavidin-coated SPA beads per well, 50 mM EDTA, 0.1% Triton X-100 in PBS, pH 7.5 and incubated for 1 hr. Finally, a 160 ul suspension solution containing 2.4 M CsCl, 50 mM EDTA, and 0.1% Triton X-100 in PBS (pH 7.5) was added to the reaction solution to suspend SPA beads completely. SPA signals were determined with a Wallac MicroBeta plate counter (PerkinElmer) 30 min later for calculation of the amount of product formed. The amount of products formed in 2 hr was plotted against activator concentrations to determine the effective concentration of the activator (EC50) required for 50% of maximal enzyme activity.
# Compounds as described above have EC50 values between 0.5 uM and 50 uM, preferred compounds have EC50 values between 0.5 uM and 10 uM, particularly preferred compounds have EC50 values between 0.5 uM and 1 uM.
row,Structure (SMILES),EC50 [µM]
1,"COC(=O)c1cccc(CN2C(=O)/C(=C(\c3ccccc3)c3ccc(Cl)cc3)c3cc(F)cc(Cl)c32)c1 [Example 29, 3-{7-Chloro-3-[1-(4-chloro-phenyl)-1-phenyl-meth-(E)-ylidene]-5-fluoro-2-oxo-2,3-dihydro-indol-1-ylmethyl}-benzoic acid methyl ester]",2.36
2,"COC(=O)c1cccc(CN2C(=O)/C(=C(\c3ccccc3)c3cccc(C(F)(F)F)c3)c3ccccc32)c1 [Example 30, 3-{2-Oxo-3-[1-phenyl-1-(3-trifluoromethyl-phenyl)-meth-(E)-ylidene]-2,3-dihydro-indol-1-ylmethyl}-benzoic acid methyl ester]",1.65
3,"COC(=O)c1cccc(CN2C(=O)/C(=C(\c3ccccc3)c3ccc(S(N)(=O)=O)cc3)c3ccccc32)c1 [Example 31, 3-{2-Oxo-3-[1-phenyl-1-(4-sulfamoyl-phenyl)-meth-(E)-ylidene]-2,3-dihydro-indol-1-ylmethyl}-benzoic acid methyl ester]",0.77
4,"COC(=O)c1cccc(CN2C(=O)/C(=C(\c3ccccc3)c3ccccc3S(C)(=O)=O)c3ccccc32)c1 [Example 32, 3-{3-[1-(2-Methanesulfonyl-phenyl)-1-phenyl-meth-(E)-ylidene]-2-oxo-2,3-dihydro-indol-1-ylmethyl}-benzoic acid methyl ester]",10.5
5,"COC(=O)c1cccc(CN2C(=O)/C(=C(\c3ccccc3)c3ccsc3)c3ccccc32)c1 [Example 33, 3-{2-Oxo-3-[1-phenyl-1-thiophen-3-yl-meth-(E)-ylidene]-2,3-dihydro-indol-1-ylmethyl}-benzoic acid methyl ester]",5.56
6,"COC(=O)c1cccc(CN2C(=O)/C(=C(/c3ccccc3)c3ccc(Cl)cc3)c3ccccc32)c1 [Example 34, 3-{3-[1-(4-Chloro-phenyl)-1-phenyl-meth-(Z)-ylidene]-2-oxo-2,3-dihydro-indol-1-ylmethyl}-benzoic acid methyl ester]",1.8
7,"COC(=O)c1cccc(CN2C(=O)/C(=C(\c3ccc(Cl)cc3)c3ccc(C(F)(F)F)cc3)c3ccccc32)c1 [Example 35, 3-{3-[1-(4-Chloro-phenyl)-1-(4-trifluoromethyl-phenyl)-meth-(Z)-ylidene]-2-oxo-2,3-dihydro-indol-1-ylmethyl}-benzoic acid methyl ester]",2.95
8,"CCOC(=O)COc1ccc(CN2C(=O)/C(=C(\c3ccccc3)c3ccc(Cl)cc3)c3ccccc32)cc1 [Example 36, (4-{3-[1-(4-Chloro-phenyl)-1-phenyl-meth-(E)-ylidene]-2-oxo-2,3-dihydro-indol-1-ylmethyl}-phenoxy)-acetic acid ethyl ester]",3.69
9,"CC(C)NC(=O)c1cccc(CN2C(=O)/C(=C(\c3ccccc3)c3ccc(Cl)cc3)c3ccccc32)c1 [Example 37, 3-{3-[1-(4-Chloro-phenyl)-1-phenyl-meth-(E)-ylidene]-2-oxo-2,3-dihydro-indol-1-ylmethyl}-N-isopropyl-benzamide]",4.49
10,"COC(=O)c1ccc(CN2C(=O)/C(=C(\c3ccccc3)c3ccc(Cl)cc3)c3ccccc32)nc1 [Example 38, 6-{3-[1-(4-Chloro-phenyl)-1-phenyl-meth-(E)-ylidene]-2-oxo-2,3-dihydro-indol-1-ylmethyl}-nicotinic acid methyl ester]",2.91
11,"CCOC(=O)c1csc(CN2C(=O)/C(=C(\c3ccccc3)c3ccc(Cl)cc3)c3ccccc32)n1 [Example 39, 2-{3-[1-(4-Chloro-phenyl)-1-phenyl-meth-(E)-ylidene]-2-oxo-2,3-dihydro-indol-1-ylmethyl}-thiazole-4-carboxylic acid ethyl ester]",1.57
12,"O=C1/C(=C(\c2ccccc2)c2ccc(Cl)cc2)c2ccccc2N1Cc1cc(O)c(O)c(O)c1 [Example 41, 3-[1-(4-Chloro-phenyl)-1-phenyl-meth-(E)-ylidene]-1-(3,4,5-trihydroxy-benzyl)-1,3-dihydro-indol-2-one]",4.51
13,"O=C1/C(=C(/c2ccccc2)c2ccc(Cl)cc2)c2ccccc2N1Cc1cc(O)c(O)c(O)c1 [Example 42, 3-[1-(4-Chloro-phenyl)-1-phenyl-meth-(Z)-ylidene]-1-(3,4,5-trihydroxy-benzyl)-1,3-dihydro-indol-2-one]",4.5
14,"O=C1/C(=C(\c2ccccc2)c2ccc(Cl)cc2)c2ccccc2N1Cc1ccc(O)cc1 [Example 43, 3-[1-(4-Chloro-phenyl)-1-phenyl-meth-(E)-ylidene]-1-(4-hydroxy-benzyl)-1,3-dihydro-indol-2-one]",3.23
15,"O=C(O)c1cccc(CN2C(=O)/C(=C(\c3ccccc3)c3ccc(Cl)cc3)c3ccccc32)c1 [Example 44, 3-{3-[1-(4-Chloro-phenyl)-1-phenyl-meth-(E)-ylidene]-2-oxo-2,3-dihydro-indol-1-ylmethyl}-benzoic acid]",1.21
16,"O=C(O)c1cccc(CN2C(=O)/C(=C(\c3ccccc3)c3ccc(F)cc3)c3ccccc32)c1 [Example 45, 3-{3-[1-(4-Fluoro-phenyl)-1-phenyl-meth-(E)-ylidene]-2-oxo-2,3-dihydro-indol-1-ylmethyl}-benzoic acid]",1.89
17,"COc1ccc(/C(=C2/C(=O)N(Cc3cccc(C(=O)O)c3)c3ccccc32)c2ccccc2)cc1 [Example 46, 3-{3-[1-(4-Methoxy-phenyl)-1-phenyl-meth-(E)-ylidene]-2-oxo-2,3-dihydro-indol-1-ylmethyl}-benzoic acid]",4.02
18,"COc1ccccc1/C(=C1\C(=O)N(Cc2cccc(C(=O)O)c2)c2ccccc21)c1ccc(Cl)cc1 [Example 47, 3-{3-[1-(4-Chloro-phenyl)-1-(2-methoxy-phenyl)-meth-(Z)-ylidene]-2-oxo-2,3-dihydro-indol-1-ylmethyl}-benzoic acid]",2.38
19,"O=C(O)c1cccc(CN2C(=O)/C(=C(\c3ccccc3)c3ccc(C(F)(F)F)cc3)c3ccccc32)c1 [Example 48, 3-{2-Oxo-3-[1-phenyl-1-(4-trifluoromethyl-phenyl)-meth-(E)-ylidene]-2,3-dihydro-indol-1-ylmethyl}-benzoic acid]",3.15
20,"O=C(O)c1cccc(CN2C(=O)/C(=C(\c3ccccc3)c3ccccc3OC(F)(F)F)c3ccccc32)c1 [Example 49, 3-{2-Oxo-3-[1-phenyl-1-(2-trifluoromethoxy-phenyl)-meth-(E)-ylidene]-2,3-dihydro-indol-1-ylmethyl}-benzoic acid]",1.75
21,"O=C(O)c1cccc(CN2C(=O)/C(=C(\c3ccccc3)c3ccc(F)c(Cl)c3)c3ccccc32)c1 [Example 50, 3-{3-[1-(3-Chloro-4-fluoro-phenyl)-1-phenyl-meth-(E)-ylidene]-2-oxo-2,3-dihydro-indol-1-ylmethyl}-benzoic acid]",5.89
22,"COc1cc(/C(=C2/C(=O)N(Cc3cccc(C(=O)O)c3)c3ccccc32)c2ccccc2)cc(OC)c1OC [Example 51, 3-{2-Oxo-3-[1-phenyl-1-(3,4,5-trimethoxy-phenyl)-meth-(E)-ylidene]-2,3-dihydro-indol-1-ylmethyl}-benzoic acid]",1.42
23,"O=C(O)c1cccc(CN2C(=O)/C(=C(\c3ccccc3)c3cccc(Cl)c3)c3ccccc32)c1 [Example 52, 3-{3-[1-(3-Chloro-phenyl)-1-phenyl-meth-(E)-ylidene]-2-oxo-2,3-dihydro-indol-1-ylmethyl}-benzoic acid]",6.55
24,"O=C(O)c1cccc(CN2C(=O)/C(=C(\c3ccccc3)c3ccc(Cl)cc3)c3cc(F)ccc32)c1 [Example 53, 3-{3-[1-(4-Chloro-phenyl)-1-phenyl-meth-(E)-ylidene]-5-fluoro-2-oxo-2,3-dihydro-indol-1-ylmethyl}-benzoic acid]",5.89
25,"O=C(O)c1cccc(CN2C(=O)/C(=C(\c3ccccc3)c3cc(Cl)cc(Cl)c3)c3ccccc32)c1 [Example 54, 3-{3-[1-(3,5-Dichloro-phenyl)-1-phenyl-meth-(E)-ylidene]-2-oxo-2,3-dihydro-indol-1-ylmethyl}-benzoic acid]",5.14
26,"O=C(O)c1cccc(CN2C(=O)/C(=C(\c3ccccc3)c3cccc(Cl)c3Cl)c3ccccc32)c1 [Example 55, 3-{3-[1-(2,3-Dichloro-phenyl)-1-phenyl-meth-(E)-ylidene]-2-oxo-2,3-dihydro-indol-1-ylmethyl}-benzoic acid]",2.94
27,"O=C(O)c1ccccc1CN1C(=O)/C(=C(\c2ccccc2)c2ccc(Cl)cc2)c2ccccc21 [Example 56, 2-{3-[1-(4-Chloro-phenyl)-1-phenyl-meth-(E)-ylidene]-2-oxo-2,3-dihydro-indol-1-ylmethyl}-benzoic acid]",4.24
